Test results taken from patent publication EP4729519A1, “CRYSTAL FORM OF ENPP1 INHIBITOR” (CSPC Zhongqi Pharmaceutical Technology (Shijiazhuang) Co., …, priority 2023, dated 2024).
pIC50: −log10 of the molar value. Read-outs that look alike come from different tables or passages of the source.

Legend:
[1] = target: T1, hENPP1 enzyme (Homo sapiens, UniProt P22413); assay: ENPP1 enzymatic inhibition test in vitro (TMP-pNP hydrolysis, OD405); type: biochemical; settings: TMP-pNP substrate, pH 9.5, 37 °C, 0.5 h
T1 sequence (P22413 1-925): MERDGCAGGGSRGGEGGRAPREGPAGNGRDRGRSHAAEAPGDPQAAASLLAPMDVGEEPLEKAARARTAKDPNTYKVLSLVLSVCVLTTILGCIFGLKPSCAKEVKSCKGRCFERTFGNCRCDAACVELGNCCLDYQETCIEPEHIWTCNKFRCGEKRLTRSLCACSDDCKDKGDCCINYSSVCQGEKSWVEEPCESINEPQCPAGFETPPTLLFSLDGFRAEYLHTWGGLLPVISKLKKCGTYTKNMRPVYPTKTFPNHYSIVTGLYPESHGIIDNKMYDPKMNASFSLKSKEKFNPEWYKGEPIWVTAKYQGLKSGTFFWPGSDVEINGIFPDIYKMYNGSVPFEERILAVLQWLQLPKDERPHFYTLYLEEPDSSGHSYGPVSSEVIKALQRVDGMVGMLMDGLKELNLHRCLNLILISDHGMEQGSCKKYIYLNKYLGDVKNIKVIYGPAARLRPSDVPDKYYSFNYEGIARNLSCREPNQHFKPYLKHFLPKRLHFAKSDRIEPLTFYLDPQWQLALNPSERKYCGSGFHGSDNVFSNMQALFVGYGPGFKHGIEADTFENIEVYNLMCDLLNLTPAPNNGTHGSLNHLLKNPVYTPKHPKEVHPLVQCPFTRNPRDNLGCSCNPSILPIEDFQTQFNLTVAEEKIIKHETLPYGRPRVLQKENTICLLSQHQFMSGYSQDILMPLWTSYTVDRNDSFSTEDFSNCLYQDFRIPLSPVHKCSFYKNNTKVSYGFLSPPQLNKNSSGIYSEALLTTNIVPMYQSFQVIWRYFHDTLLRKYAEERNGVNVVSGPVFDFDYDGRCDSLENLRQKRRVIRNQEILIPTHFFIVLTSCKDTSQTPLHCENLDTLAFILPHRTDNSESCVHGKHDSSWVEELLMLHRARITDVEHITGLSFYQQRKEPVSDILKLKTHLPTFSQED
Excerpt: ENPP1 is a transmembrane glycoprotein capable of hydrolyzing nucleotides and derivatives with nucleotide-5'-monophosphate structures. ENPP1 is capable of hydrolyzing artificially synthesized 5'-p-nitrophenyl monophosphate (TMP-pNP) into nucleotide 5'-monophosphate and p-nitrophenol, while p-nitrophenol is a chromogenic product. The production amount of p-nitrophenol product can be directly measured by its absorbance at 405 nm, which is directly proportional to the enzyme activity.
100X serial gradient dilutions of compound were prepared with DMSO, starting from a stock concentration of 1 mM, and using a 4-fold serial gradient dilution to make 10 concentration points. 300 Nanoliter of compounds at gradient concentrations were transferred to a 384-well assay plate (final concentration: starting at 10 µM, 4-fold serial gradient dilution, 10 concentration points) by using Echo. First, 15 µL of 0.2 ng/uL hENPP1 enzyme (2× final concentration) prepared in an assay buffer (250 mM NaCl, 50 mM Tris, pH = 9.5) was added to each well. […] After incubation at 37 °C for 0.5 h, the OD405 nm value was read by the microplate reader. The percentage of inhibition rate was calculated using the formula: %Inhibition Rate=(ODhigh signal control - ODsample well) / (ODhigh signal control - ODlow signal control)*100. The IC50 value was calculated using four-parameter fitting. […]

[2] = Pharmacokinetic test in mice, plasma concentration by LC-MS/MS; type: in vivo, CD-1 male mice; settings: male, CD-1, mouse; for AUC(0-t): read-out: AUC0-24h
[3] = tested on: pancreatic cancer Pan02 cells; assay: Mouse subcutaneous homograft tumour model of pancreatic cancer Pan02; type: in vivo, C57BL/6 mice; settings: 20 mg/kg oral gavage twice daily
Experimental: • 1. Experimental Objective: The in vivo efficacy of the test drug in the mouse subcutaneous homograft tumour model of pancreatic cancer Pan02 cells was evaluated. • 2. Experimental Methods • 2.1 Cell Culture Mouse pancreatic cancer Pan02 cells were cultured in monolayer in vitro in DMEM medium supplemented with 10% fetal bovine serum, 0.01 mg/mL sinsulin, 1% penicillin/streptomycin/amphotericin B in an incubator at 37 °C with 5% CO2. When the cell saturation was 80%-90% and the number reached the requirement, the cells were harvested, counted, and inoculated. • 2.2 Animals C57BL/6 mice, female, 6-8 weeks old, weighing 18-22 g. The mice were provided by Shanghai Xipu-Bikai Laboratory Animal Co., Ltd., or other suppliers. • 2.3 Tumour Inoculation and Animal Grouping and administration 0.1 Milliliter of Pan02 cells (5×10^6 cells) were inoculated subcutaneously into the right hind back of each mouse, and animal grouping and administration began when the average tumour volume reached about 100-200 mm^3. Animals were weighed and tumour volumes were measured before administration. Mice were randomly divided into groups based on the tumour volume, with 8 mice in each group. […] Tumor volume was calculated using the formula: V=0.5a×b^2, where a and b represented the long and short diameters of the tumour, respectively. […]

[4] = tested on: C57 BL/6 mouse model of myocardial ischemia; assay: Mouse myocardial ischemia model (LAD ligation), echocardiography and Masson staining; type: in vivo; settings: mice; for reduction of the degree of fibrosis compared with the vehicle control group: Masson staining; for increase of left ventricular ejection fraction (LVEF) compared with the vehicle control group / increase of left ventricular fractional shortening (FS) compared with the vehicle control group: day 1; for increase of left ventricular ejection fraction (LVEF) / increase of left ventricular fractional shortening (FS): day 7
Excerpt: This study aimed to evaluate the pharmacodynamic effect of the compound of formula (I) in a C57 BL/6 mouse model of myocardial ischemia.
After the animals had acclimated to the facility for one week, they were divided into four groups based on their body weights on the day before surgery, with 6 animals in the sham group (Sham) and 8 animals in the model group (MI). On the next day, the animals underwent myocardial ischemia surgery for modeling (the mice in the Sham group only underwent thoracotomy and threading without ligation). The model was established by ligation of the left anterior descending coronary artery (LAD). After model establishment, the mice were administered penicillin (20,000 units/mouse, i.m.) for 3 days, and disinfected to prevent infection.
Each group of animals was administered the corresponding compounds one hour before surgery. The control group (Vehicle) was administered the vehicle: 5% DMSO+45% PEG400+50% H2O (1% CMC-Na). The experimental groups were administered by oral gavage at doses of 4 mg/kg and 20 mg/kg, respectively, twice daily for 28 consecutive days. The body weights of the animals were monitored daily after administration, and echocardiographic imaging indicators were measured on days 1, 7 and 28. The primary indicators of echocardiographic evaluation were left ventricular fractional shortening (FS) and left ventricular ejection fraction (LVEF). After the echocardiographic measurement on day 28, heart tissues were collected in a tissue fixative for pathological analysis by Masson's trichrome staining.

[5] = tested on: SD rat model of myocardial ischemia; assay: Rat myocardial ischemia model (LAD ligation), echocardiography and Masson staining; type: in vivo; settings: rats; for reduction of the degree of fibrosis compared with the vehicle control group: Masson staining
Experimental: This study aimed to evaluate the pharmacodynamic effect of the compound of formula (I) in a SD rat model of myocardial ischemia.
After the animals had acclimated to the facility for one week, the model was established by ligation of the left anterior descending coronary artery (LAD). After model establishment, the rats were administered penicillin (80,000 units/rat, i.m.) for 3 days, and disinfected to prevent infection.
One day after model establishment, the modeled animals were randomly divided into 4 groups according to the baseline body weight and echocardiographic imaging indicators, with 4 animals in each sham group (Sham) and 6 animals in each myocardial infarction model group (MI), and drug administration was then initiated. The control group was given the blank vehicle: 5% DMSO + 45% PEG400 + 50% H2O (1% CMC-Na). The experimental groups were administered by oral gavage at doses of 30 mg/kg and 75 mg/kg, respectively, twice daily for 28 consecutive days. The body weights of the animals were monitored daily after administration, and echocardiographic imaging indicators were measured on days 7 and 28. The primary indicators of echocardiographic evaluation were left ventricular fractional shortening (FS) and left ventricular ejection fraction (LVEF). After the echocardiographic measurement on day 28, heart tissues were collected in a tissue fixative for pathological analysis by Masson's trichrome staining.

[6] = 30mpk oral gavage twice daily, 7th day
[7] = 30mpk oral gavage twice daily, day 28
[8] = 75mpk oral gavage twice daily, 7th day
[9] = 75mpk oral gavage twice daily, day 28

For `COc1ccc2c3c(cnc2n1)COC(=O)N3Cc1c(F)cc(S(N)(=O)=O)cc1F` [Compound of Formula (I), 3,5-difluoro-4-((8-methoxy-2-oxo-2H-[1,3]oxazino[5,4-c][1,8]naphthyridin-1(4H)-yl)methyl)benzenesulfonamide], the pIC50 [1] was 10.30, the clearance ([2]; 2 mg/kg, IV, 2mpk) was 3.2 mL/min/kg and the half-life ([2]; 2 mg/kg, IV, 2mpk) was 5.35 h. It also gave an AUC(0-t) ([2]; 2 mg/kg, IV, 2mpk) of 10000 ng·h/mL, a Vd ([2]; 2 mg/kg, IV, 2mpk, read-out: Vss) of 1.08 L/kg and a Cmax ([2]; 10 mg/kg, PO, 10mpk) of 8080 ng/mL. It also gave a Tmax ([2]; 10 mg/kg, PO, 10mpk) of 2 h, a half-life ([2]; 10 mg/kg, PO, 10mpk) of 3.5 h and an AUC(0-t) ([2]; 10 mg/kg, PO, 10mpk) of 47800 ng·h/mL. For the same molecule, the “effect on the body weight of the mice” value ([3]; 16 days) was “no inhibitory effect on the body weight”, the TGI ([3]; after administration for 16 days, p<0.05 vs control group) was 43.4% and the “reduction of the degree of fibrosis compared with the vehicle control group” value (from here on “reduction of the degree of fibrosis”) ([4]; 4 mg/kg twice daily, 28 days) was 8.8%. For the same molecule, the “reduction of the degree of fibrosis” value ([4]; 20 mg/kg twice daily, 28 days) was 9.6%, the “effect on body weight” value ([4]; 4 and 20 mg/kg twice daily, 28 days) was “without any significant effect on body weight” and the “increase of left ventricular ejection fraction (LVEF) compared with the vehicle control group” value ([4]; 4 mpk oral gavage twice daily) was 15%. For the same molecule, the “increase of left ventricular fractional shortening (FS) compared with the vehicle control group” value ([4]; 4 mpk oral gavage twice daily) was 7%, the “increase of left ventricular ejection fraction (LVEF)” value ([4]; 4 mpk oral gavage twice daily) was 23.4% and the “increase of left ventricular fractional shortening (FS)” value ([4]; 4 mpk oral gavage twice daily) was 12.2%. The “increase of left ventricular ejection fraction (LVEF) compared with the vehicle control group” value ([4]; 20 mpk oral gavage twice daily) was 10%, the “increase of left ventricular fractional shortening (FS) compared with the vehicle control group” value ([4]; 20 mpk oral gavage twice daily) was 5% and the “increase of left ventricular ejection fraction (LVEF)” value ([4]; 20 mpk oral gavage twice daily) was 23.3%. The “increase of left ventricular fractional shortening (FS)” value ([4]; 20 mpk oral gavage twice daily) was 12.3%, the “LVEF and FS in the left ventricle” value ([4]; day 28, vehicle control group further deteriorated) was “further maintained the LVEF and FS” and the “reduction of the degree of fibrosis” value ([5]; 30 mg/kg twice daily, 28 days) was 5.2%. For the same molecule, the “reduction of the degree of fibrosis” value ([5]; 75 mg/kg twice daily, 28 days) was 6.5%, the “effect on body weight” value ([5]; 30 and 75 mg/kg twice daily, 28 days) was “no significant effect on body weight” and the “increase of LVEF” value [5, 6] was 11.43%. For the same molecule, the “increase of left ventricular fractional shortening (FS)” value [5, 6] was 9.73%, the “increase of LVEF” value [5, 7] was 18.75% and the “increase of left ventricular fractional shortening (FS)” value [5, 7] was 13.01%. For the same molecule, the “increase of LVEF” value [5, 8] was 18.85%, the “increase of left ventricular fractional shortening (FS)” value [5, 8] was 12.62% and the “increase of LVEF” value [5, 9] was 23.8%. The “increase of left ventricular fractional shortening (FS)” value [5, 9] was 15.88%.
